In ChEMBL document CHEMBL2177007, “Indole-derived psammaplin A analogues as epigenetic modulators with multiple inhibitory activities” (J Med Chem, 2012) one finds Activity and inhibition data, which are given here for 4 compounds.

By inhibition is commonly meant the change of the read-out against control, counted positive when it falls.

Experiment [1] relates to U-937. Kind of experiment: Cell cycle arrest in human U937 cells at 5 uM after 24 hrs by cytofluorimetric analysis. The format is functional, cell-based.
For experiment [2], the target named is Histone deacetylase 1 (Homo sapiens) (UniProt Q13547). Kind of experiment: Inhibition of HDAC1 in human U937 cells at 5 uM […]. Format: cell-based. The settings on record: U-937.
Chain of Histone deacetylase 1 (Homo sapiens) (Q13547 whole entry): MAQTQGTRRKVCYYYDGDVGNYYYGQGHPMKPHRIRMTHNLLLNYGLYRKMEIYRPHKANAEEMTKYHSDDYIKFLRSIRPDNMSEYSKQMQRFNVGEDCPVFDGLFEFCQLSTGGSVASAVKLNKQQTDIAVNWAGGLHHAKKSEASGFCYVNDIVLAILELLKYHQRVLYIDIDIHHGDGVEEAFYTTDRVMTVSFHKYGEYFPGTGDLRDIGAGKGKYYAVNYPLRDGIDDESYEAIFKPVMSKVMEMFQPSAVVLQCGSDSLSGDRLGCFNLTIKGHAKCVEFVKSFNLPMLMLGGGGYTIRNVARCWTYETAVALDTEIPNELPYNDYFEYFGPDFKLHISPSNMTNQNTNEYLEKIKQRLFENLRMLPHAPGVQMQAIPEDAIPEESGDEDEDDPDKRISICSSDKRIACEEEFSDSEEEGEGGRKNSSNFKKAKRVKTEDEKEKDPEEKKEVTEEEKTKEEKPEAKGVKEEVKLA
Experiment [3] is described as follows: Cell cycle arrest in apoptosis in AML patient blasts at 5 uM after 26 hrs. The format is functional. The settings on record: Homo sapiens.
Experiment [4] concerns the target Histone deacetylase (Homo sapiens) (UniProt Q13547+O15379+Q9UBN7+Q92769+Q9UQL6+Q8WUI4+Q9BY41+Q96DB2+P56524+Q9UKV0+Q969S8). Nature of the experiment: Inhibition of HDAC in human U937 cells assessed as induction of histone H3 acetylation at 5 uM after 30 hrs by cytofluorimetric analysis. Format: cell-based. The conditions noted are these: U-937.
Experiment [5] concerns the target Histone deacetylase 4 (Homo sapiens) (UniProt P56524). Nature of the experiment: Inhibition of HDAC4 in human U937 cells at 5 uM […]. The format is cell-based. The settings on record: U-937.
Experiment [6] has as its system U-937. Kind of experiment: Induction of apoptosis in human U937 cells at 5 uM after 30 hrs. The format is functional, cell-based.
The subject of a further experiment is AML. Nature of the experiment: Induction of apoptosis in AML patient blasts at 5 uM after 26 hrs. Format: functional. The conditions noted are these: Homo sapiens.
Experiment [7] deals with T1, Protein deacetylase HDAC6 (Homo sapiens) (UniProt Q9UBN7).
T1 sequence (whole entry): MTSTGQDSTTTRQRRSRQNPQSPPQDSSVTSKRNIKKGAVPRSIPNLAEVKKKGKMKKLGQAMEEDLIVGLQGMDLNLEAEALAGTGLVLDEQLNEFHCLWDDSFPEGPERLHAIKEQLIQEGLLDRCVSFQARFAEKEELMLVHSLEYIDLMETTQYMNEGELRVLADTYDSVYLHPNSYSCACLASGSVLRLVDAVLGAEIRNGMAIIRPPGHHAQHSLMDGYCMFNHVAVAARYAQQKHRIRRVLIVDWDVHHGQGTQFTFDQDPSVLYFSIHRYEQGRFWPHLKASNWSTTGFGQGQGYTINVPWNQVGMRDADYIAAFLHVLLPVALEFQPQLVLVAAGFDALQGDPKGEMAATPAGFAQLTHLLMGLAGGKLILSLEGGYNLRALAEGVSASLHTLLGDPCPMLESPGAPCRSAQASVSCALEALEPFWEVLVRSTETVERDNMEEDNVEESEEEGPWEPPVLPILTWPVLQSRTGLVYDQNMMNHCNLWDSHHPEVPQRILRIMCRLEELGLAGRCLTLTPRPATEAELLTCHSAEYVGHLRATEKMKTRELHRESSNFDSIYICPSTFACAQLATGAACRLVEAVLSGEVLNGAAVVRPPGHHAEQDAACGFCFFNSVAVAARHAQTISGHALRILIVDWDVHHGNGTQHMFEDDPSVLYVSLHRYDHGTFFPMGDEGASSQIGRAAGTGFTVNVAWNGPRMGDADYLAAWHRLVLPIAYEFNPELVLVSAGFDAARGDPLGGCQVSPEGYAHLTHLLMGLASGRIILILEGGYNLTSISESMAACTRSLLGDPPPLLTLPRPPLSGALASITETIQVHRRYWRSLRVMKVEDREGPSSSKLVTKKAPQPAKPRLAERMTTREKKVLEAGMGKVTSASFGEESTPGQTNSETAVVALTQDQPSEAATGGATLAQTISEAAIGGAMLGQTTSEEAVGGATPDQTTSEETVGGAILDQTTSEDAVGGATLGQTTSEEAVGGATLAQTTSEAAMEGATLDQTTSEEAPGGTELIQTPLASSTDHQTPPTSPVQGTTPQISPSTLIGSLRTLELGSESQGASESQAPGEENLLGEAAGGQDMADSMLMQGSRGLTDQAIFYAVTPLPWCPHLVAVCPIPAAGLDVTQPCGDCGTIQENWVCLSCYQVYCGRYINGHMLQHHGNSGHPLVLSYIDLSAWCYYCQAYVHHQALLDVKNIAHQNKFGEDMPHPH
Nature of the experiment: Inhibition of HDAC6 in human U937 cells assessed as induction of alpha-tubulin acetylation at 5 uM after 30 hrs by cytofluorimetric analysis. Format: cell-based. The conditions noted are these: U-937.

Experiment [8] concerns the target Protein kinase C alpha type (Homo sapiens) (UniProt P17252). Kind of experiment: Inhibition of PKCalpha in human U937 cells assessed as p21WAF1/CIP1 expression at 5 uM after 30 hrs by cytofluorimetric analysis. The format is cell-based. The settings on record: U-937.
Experiment [9] deals with U-937. Kind of experiment: Induction of cell differentiation in human U937 cells assessed as CD11c expression at 5 uM after 30 hrs by cytofluorimetric analysis. Format: functional, cell-based.
The target of experiment [10] is DNA (cytosine-5)-methyltransferase 1 (Homo sapiens) (UniProt P26358). Nature of the experiment: Inhibition of DNMT1 human U937 cells assessed as reactivation of p16 expression at 5 uM after 24 hrs by Western blot analysis. The conditions noted are these: U-937. Format: cell-based.
Chain of DNA (cytosine-5)-methyltransferase 1 (Homo sapiens) (P26358 whole entry): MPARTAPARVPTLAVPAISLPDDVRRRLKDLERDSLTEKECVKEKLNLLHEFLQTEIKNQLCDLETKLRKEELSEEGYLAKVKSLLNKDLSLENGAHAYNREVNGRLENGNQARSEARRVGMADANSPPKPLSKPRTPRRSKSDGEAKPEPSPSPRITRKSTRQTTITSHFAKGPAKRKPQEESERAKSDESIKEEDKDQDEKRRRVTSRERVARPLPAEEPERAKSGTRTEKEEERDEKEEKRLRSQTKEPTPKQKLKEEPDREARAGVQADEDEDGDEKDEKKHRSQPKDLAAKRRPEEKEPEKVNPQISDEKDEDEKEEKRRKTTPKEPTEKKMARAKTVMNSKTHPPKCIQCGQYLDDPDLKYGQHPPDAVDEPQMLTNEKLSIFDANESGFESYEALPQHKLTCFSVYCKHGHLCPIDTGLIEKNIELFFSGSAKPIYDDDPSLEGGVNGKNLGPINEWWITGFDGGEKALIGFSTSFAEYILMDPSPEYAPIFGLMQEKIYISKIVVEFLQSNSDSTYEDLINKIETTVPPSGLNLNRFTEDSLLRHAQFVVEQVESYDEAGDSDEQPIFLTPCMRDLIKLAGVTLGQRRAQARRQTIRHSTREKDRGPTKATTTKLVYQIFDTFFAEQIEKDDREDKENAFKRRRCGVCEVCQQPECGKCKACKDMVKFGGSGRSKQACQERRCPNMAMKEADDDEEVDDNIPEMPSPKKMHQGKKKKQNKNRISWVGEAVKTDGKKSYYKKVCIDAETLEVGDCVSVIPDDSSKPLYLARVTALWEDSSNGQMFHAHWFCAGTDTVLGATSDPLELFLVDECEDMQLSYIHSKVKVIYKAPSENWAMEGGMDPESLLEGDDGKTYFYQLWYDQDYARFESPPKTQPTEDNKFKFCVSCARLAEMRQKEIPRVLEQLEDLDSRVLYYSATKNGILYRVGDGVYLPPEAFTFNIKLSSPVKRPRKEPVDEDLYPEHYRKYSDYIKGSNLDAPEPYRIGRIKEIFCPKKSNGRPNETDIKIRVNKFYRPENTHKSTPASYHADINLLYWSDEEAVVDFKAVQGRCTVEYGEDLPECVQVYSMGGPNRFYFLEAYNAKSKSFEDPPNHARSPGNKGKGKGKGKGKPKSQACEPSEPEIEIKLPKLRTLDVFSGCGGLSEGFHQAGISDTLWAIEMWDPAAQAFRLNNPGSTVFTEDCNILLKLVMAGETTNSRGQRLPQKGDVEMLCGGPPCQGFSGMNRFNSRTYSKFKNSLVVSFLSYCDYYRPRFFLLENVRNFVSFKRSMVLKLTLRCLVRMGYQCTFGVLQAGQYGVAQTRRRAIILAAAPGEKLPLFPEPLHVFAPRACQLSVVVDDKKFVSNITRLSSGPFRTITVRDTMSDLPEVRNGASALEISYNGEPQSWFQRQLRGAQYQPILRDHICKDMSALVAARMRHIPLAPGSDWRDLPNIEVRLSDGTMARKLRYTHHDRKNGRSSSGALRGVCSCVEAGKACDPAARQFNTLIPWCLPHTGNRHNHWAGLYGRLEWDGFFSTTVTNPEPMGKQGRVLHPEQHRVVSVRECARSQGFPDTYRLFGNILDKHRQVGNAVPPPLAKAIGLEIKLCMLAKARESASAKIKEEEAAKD
Experiment [11] shares this target. Kind of experiment: Inhibition of recombinant DNMT1 using S-adenosyl-L-[methyl-3H]methionine as substrate at 5 uM after 2 hrs by radioactive assay.
Experiment [12] deals with T2, NAD-dependent protein deacetylase sirtuin-1 (Homo sapiens) (UniProt Q96EB6).
T2 sequence (whole entry): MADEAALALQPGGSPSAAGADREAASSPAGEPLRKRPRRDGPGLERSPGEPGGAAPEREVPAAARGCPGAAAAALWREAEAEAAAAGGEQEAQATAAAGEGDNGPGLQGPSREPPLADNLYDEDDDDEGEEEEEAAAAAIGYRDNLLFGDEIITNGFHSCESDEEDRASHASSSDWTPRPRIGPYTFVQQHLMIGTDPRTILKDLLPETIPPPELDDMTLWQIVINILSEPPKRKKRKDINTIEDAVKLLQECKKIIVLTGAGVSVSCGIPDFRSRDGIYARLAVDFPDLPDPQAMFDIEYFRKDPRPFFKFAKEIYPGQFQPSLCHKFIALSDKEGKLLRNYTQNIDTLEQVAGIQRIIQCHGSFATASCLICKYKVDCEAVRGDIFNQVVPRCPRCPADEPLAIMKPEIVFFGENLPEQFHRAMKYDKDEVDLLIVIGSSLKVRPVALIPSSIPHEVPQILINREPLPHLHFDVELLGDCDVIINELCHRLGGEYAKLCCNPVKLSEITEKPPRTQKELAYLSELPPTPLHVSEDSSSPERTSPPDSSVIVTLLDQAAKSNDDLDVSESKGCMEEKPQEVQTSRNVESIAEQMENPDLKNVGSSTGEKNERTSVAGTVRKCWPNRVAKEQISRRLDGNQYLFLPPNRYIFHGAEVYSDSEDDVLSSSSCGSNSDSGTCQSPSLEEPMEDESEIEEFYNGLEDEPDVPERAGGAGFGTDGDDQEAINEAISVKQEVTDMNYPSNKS
Nature of the experiment: Inhibition of SIRT1 in human MCF7 cells assessed as p53 acetylation on lysine 382 at 5 uM after 24 hrs by Western blot analysis. Format: cell-based.

Experiment [13] concerns the target DNA (cytosine-5)-methyltransferase 1 (Homo sapiens) (UniProt P26358). Kind of experiment: Inhibition of DNMT1 human u937 cells assessed as reactivation of p16 expression at 0.5 to 5 uM after 24 hrs by Western blot analysis. On the technique in general: Immunoblotting shows a protein as a band on a membrane.
Experiment [14] relates to U-937. Nature of the experiment: Effect on DNMT1 level in human U937 cells at 0.5 to 5 uM after 24 hrs by Western blot analysis. The format is functional, cell-based.
The target in experiment [15] is T2, NAD-dependent protein deacetylase sirtuin-1 (Homo sapiens). Nature of the experiment: Inhibition of human recombinant SIRT1 using KI-177 as substrate at 5 uM after 30 mins by fluorescence assay.
Experiment [16] has as its system U-937. Nature of the experiment: Cell cycle arrest in human U937 cells assessed as accumulation at G1 phase at 5 uM after 24 hrs by cytofluorimetric analysis. Format: functional, cell-based.
Experiment [17] has as its target T2, NAD-dependent protein deacetylase sirtuin-1 (Homo sapiens). Kind of experiment: Inhibition of SIRT1 in human U937 cells assessed as H3 acetylation on lysine K56 at 5 uM after 24 hrs by Western blot analysis. The conditions noted are these: U-937. Format: cell-based.
The subject of experiment [18] is U-937. Nature of the experiment: Cell cycle arrest in human U937 cells assessed as accumulation at G2M phase at 5 uM after 24 hrs by cytofluorimetric analysis. The format is functional, cell-based.
Experiment [19] has as its target T2, NAD-dependent protein deacetylase sirtuin-1 (Homo sapiens). Nature of the experiment: Inhibition of SIRT1 in human U937 cells assessed as H3 acetylation on lysine K9 at 5 uM after 24 hrs by Western blot analysis. The settings on record: U-937. Format: cell-based.

Activity calls are given as the source filed them. The rule behind the calls is not given here.

Chain of Histone deacetylase 4 (Homo sapiens) (P56524 whole entry): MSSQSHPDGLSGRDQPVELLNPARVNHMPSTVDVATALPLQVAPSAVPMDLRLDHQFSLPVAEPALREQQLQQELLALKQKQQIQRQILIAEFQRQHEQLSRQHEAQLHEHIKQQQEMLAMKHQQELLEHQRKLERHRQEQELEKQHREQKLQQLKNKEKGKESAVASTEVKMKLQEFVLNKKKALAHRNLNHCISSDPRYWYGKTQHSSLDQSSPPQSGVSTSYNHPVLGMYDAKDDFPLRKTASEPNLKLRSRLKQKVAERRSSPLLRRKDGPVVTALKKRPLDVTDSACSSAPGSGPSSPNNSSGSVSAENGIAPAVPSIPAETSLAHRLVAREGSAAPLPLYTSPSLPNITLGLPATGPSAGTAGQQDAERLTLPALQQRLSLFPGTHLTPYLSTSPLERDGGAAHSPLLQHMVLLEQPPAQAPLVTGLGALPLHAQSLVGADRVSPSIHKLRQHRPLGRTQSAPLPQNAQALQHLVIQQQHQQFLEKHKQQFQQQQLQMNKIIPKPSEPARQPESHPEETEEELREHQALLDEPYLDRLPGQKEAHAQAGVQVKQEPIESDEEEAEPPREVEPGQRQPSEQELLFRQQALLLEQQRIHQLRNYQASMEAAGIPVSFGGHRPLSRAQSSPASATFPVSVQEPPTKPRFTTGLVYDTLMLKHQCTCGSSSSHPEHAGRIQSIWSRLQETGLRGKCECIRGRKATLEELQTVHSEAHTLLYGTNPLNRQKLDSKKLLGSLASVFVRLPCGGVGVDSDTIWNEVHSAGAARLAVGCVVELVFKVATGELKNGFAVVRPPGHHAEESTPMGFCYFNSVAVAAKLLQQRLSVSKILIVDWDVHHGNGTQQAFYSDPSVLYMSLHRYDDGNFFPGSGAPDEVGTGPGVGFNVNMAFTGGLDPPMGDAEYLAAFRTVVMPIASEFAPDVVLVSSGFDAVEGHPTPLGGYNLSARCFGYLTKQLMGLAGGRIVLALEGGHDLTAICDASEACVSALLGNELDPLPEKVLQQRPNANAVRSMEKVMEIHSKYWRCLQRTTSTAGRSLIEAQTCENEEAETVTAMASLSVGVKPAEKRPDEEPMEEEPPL

Consider `O=C(NCCSSCCNC(=O)/C(Cc1c[nH]c2c(Br)cccc12)=N/O)/C(Cc1c[nH]c2c(Br)cccc12)=N/O`, for which the result (in the experiment with U-937 [1]; in [3]; in the experiment with U-937 [6]; with AML; with U-937 [9]) was Active. Moreover, the inhibition in [2] turned out to be 60%; in [5], 40%. Besides, the inhibition entry in experiment [4], in experiment [7] and in experiment [8] was “Active” each time.
In the case of `O=C(NCCSSCCNC(=O)/C(Cc1c[nH]c2ccc(Br)cc12)=N/O)/C(Cc1c[nH]c2ccc(Br)cc12)=N/O`, the inhibition is 60% in [2] and 40% in experiment [5]. Besides, the outcome (in [3]; with U-937 [6]; with AML) was Active. The inhibition result in experiment [4], in experiment [10], in experiment [11], in experiment [12], in experiment [13] and in experiment [15] was “Active” throughout. Moreover, the inhibition entry in experiment [7] and in [8] was “Active” throughout. Further, the result with U-937 [14] was inactive.
With `O=C(NCCSSCCNC(=O)/C(Cc1c[nH]c2cc(Br)ccc12)=N/O)/C(Cc1c[nH]c2cc(Br)ccc12)=N/O`, the outcome (with U-937 [1]; in experiment [3]; in the experiment with U-937 [6]; in the experiment with AML; in the experiment on U-937 [9]) was Active. The figures for the inhibition in experiment [2] and in experiment [5] were 60% and 40%, respectively. The inhibition result in experiment [4], in [7] and in experiment [8] was “Active” each time.
As for `CSCCNC(=O)/C(Cc1c[nH]c2ccc(Br)cc12)=N/O`, the result in the experiment on U-937 [16], in the experiment with AML and in the experiment on U-937 [9] was Active. Also, the inhibition entry in experiment [17], in experiment [4], in experiment [12], in [13], in [7] and in experiment [8] was “Active” each time. Further, the inhibition result in experiment [19] is “Active”. In addition, the values for the inhibition in experiment [2] and in experiment [5] were 40% and 20%, respectively. Also, the outcome with U-937 [18], in the experiment on U-937 [6] and with U-937 [14] was inactive. Moreover, the inhibition result in experiment [11] and in experiment [15] was “inactive” in each case.
